Experiments:
Assay in all cases: Field trial, visual weed control in winter oilseed rape
Assay type in all cases: in vivo
[1] = system: GERSS Geranium sp. (cranesbill)
Description: (§1) Multiple small plot research experiments were conducted to evaluate efficacy and tolerance of winter oilseed rape to compositions described herein. Typical small plots (2-4×4-10 meters (m)) were used in growers' fields under natural conditions with normal commercial cultural practices. Backpack sprayers were used to apply all treatments based on unit area. The methyl ester of formula (I) and propyzamide were tested alone and in combination at varying rates. […] Crop stage was at Growth Stage 39-50. Visual crop injury ratings were collected 32, 49, and 74 days after treatment. […] The reported values are means. […] The following abbreviations are used in Tables 2-4: • GERSS Geranium sp. (cranesbill) • POAAN Poa annua (annual bluegrass) • VERSS Veronica sp.

[2] = system: POAAN Poa annua (annual bluegrass)
Description: as §1

[3] = system: VERSS Veronica sp. (speedwell)
Description: as §1

SMILES: COC(=O)c1nc(-c2ccc(Cl)c(OC)c2F)cc(N)c1Cl [Cmpd I, methyl ester of 4-amino-3-chloro-6-(4-chloro-2-fluoro-3-methoxyphenyl)pyridine-2-carboxylic acid]
- % control rated visually, ob (observed) ([1]; Cmpd I 1.25 g ae/ha, 32 DAAA): 42.5%
- % control rated visually, ob (observed) ([1]; Cmpd I 1.25 g ae/ha, 58 DAAA): 62.5%
- % control rated visually, ob (observed) ([1]; Cmpd I 1.25 g ae/ha, 80 DAAA): 53.8%
- % control rated visually, ob (observed) ([1]; Cmpd I 2.5 g ae/ha, 32 DAAA): 42.5%
- % control rated visually, ob (observed) ([1]; Cmpd I 2.5 g ae/ha, 58 DAAA): 57.5%
- % control rated visually, ob (observed) ([1]; Cmpd I 2.5 g ae/ha, 80 DAAA): 67.5%
- % control rated visually, ob (observed) ([1]; Cmpd I 5 g ae/ha, 32 DAAA): 89.3%
- % control rated visually, ob (observed) ([1]; Cmpd I 5 g ae/ha, 58 DAAA): 77.5%
- % control rated visually, ob (observed) ([1]; Cmpd I 5 g ae/ha, 80 DAAA): 69.5%
- % control rated visually, ob (observed) ([1]; Cmpd I 7.5 g ae/ha, 32 DAAA): 91.3%
- % control rated visually, ob (observed) ([1]; Cmpd I 7.5 g ae/ha, 58 DAAA): 91.3%
- % control rated visually, ob (observed) ([1]; Cmpd I 7.5 g ae/ha, 80 DAAA): 99.8%
- % control rated visually, ob (observed) ([2]; Cmpd I 1.25 g ae/ha, 32 DAAA): 7.5%
- % control rated visually, ob (observed) ([2]; Cmpd I 1.25 g ae/ha, 58 DAAA): 11.3%
- % control rated visually, ob (observed) ([2]; Cmpd I 1.25 g ae/ha, 80 DAAA): 16.3%
- % control rated visually, ob (observed) ([2]; Cmpd I 2.5 g ae/ha, 32 DAAA): 10.0%
- % control rated visually, ob (observed) ([2]; Cmpd I 2.5 g ae/ha, 58 DAAA): 15.0%
- % control rated visually, ob (observed) ([2]; Cmpd I 2.5 g ae/ha, 80 DAAA): 15.0%
- % control rated visually, ob (observed) ([2]; Cmpd I 5 g ae/ha, 32 DAAA): 6.3%
- % control rated visually, ob (observed) ([2]; Cmpd I 5 g ae/ha, 58 DAAA): 12.5%
- % control rated visually, ob (observed) ([2]; Cmpd I 5 g ae/ha, 80 DAAA): 6.3%
- % control rated visually, ob (observed) ([2]; Cmpd I 7.5 g ae/ha, 32 DAAA): 28.8%
- % control rated visually, ob (observed) ([2]; Cmpd I 7.5 g ae/ha, 58 DAAA): 28.8%
- % control rated visually, ob (observed) ([2]; Cmpd I 7.5 g ae/ha, 80 DAAA): 18.8%
- % control rated visually, ob (observed) ([3]; Cmpd I 1.25 g ae/ha, 32 DAAA): 10.0%
- % control rated visually, ob (observed) ([3]; Cmpd I 1.25 g ae/ha, 80 DAAA): 80.0%
- % control rated visually, ob (observed) ([3]; Cmpd I 2.5 g ae/ha, 32 DAAA): 26.3%
- % control rated visually, ob (observed) ([3]; Cmpd I 2.5 g ae/ha, 80 DAAA): 97.5%
- % control rated visually, ob (observed) ([3]; Cmpd I 5 g ae/ha, 32 DAAA): 45.0%
- % control rated visually, ob (observed) ([3]; Cmpd I 5 g ae/ha, 80 DAAA): 100.0%
- % control rated visually, ob (observed) ([3]; Cmpd I 7.5 g ae/ha, 32 DAAA): 81.3%
- % control rated visually, ob (observed) ([3]; Cmpd I 7.5 g ae/ha, 80 DAAA): 100.0%
